From ChEMBL document CHEMBL1134983, “Core-modified sordaricin derivatives: synthesis and antifungal activity” (2002)
Converted amounts (≈) assume the structure as drawn.

What was measured:
Format in all cases: functional
Candida albicans [1] = assay: Anti-fungal activity against Candida albicans A28235 (WT)
Candida albicans [2] = assay: Anti-fungal activity against Candida albicans A28660 (WT)
Nakaseomyces glabratus = assay: Anti-fungal activity against Candida glabrata A28790 (WT)

CCCCCCOCC12C[C@@H]3[C@H](C)[C@@H](O)C[C@H]3C3(C=O)CC1C=C(C(C)C)[C@@]23C(=O)O
MIC (Candida albicans [1]): 32 µg/mL (≈ 74 µM)
MIC (Candida albicans [2]): 64 µg/mL (≈ 148 µM)
MIC (Nakaseomyces glabratus): > 128 µg/mL

CCCCCCOCC12C[C@@]34[C@@H](CC[C@]3(C)C4(Cl)Cl)C3(C=O)CC1C=C(C(C)C)[C@@]23C(=O)O
MIC (Candida albicans [1]): 32 µg/mL (≈ 64.3 µM)
MIC (Candida albicans [2]): 32 µg/mL (≈ 64.3 µM)
MIC (Nakaseomyces glabratus): 64 µg/mL (≈ 129 µM)

CCCCCCOCC12C[C@@H]3[C@H](C)CC[C@H]3C3(C=O)CC1C=C(C(C)C)[C@@]23C(=O)O
MIC (Candida albicans [1]): 0.06 µg/mL (≈ 0.144 µM)
MIC (Candida albicans [2]): 0.06 µg/mL (≈ 0.144 µM)
MIC (Nakaseomyces glabratus): 0.125 µg/mL (≈ 0.3 µM)

CCCCCCOCC12CC3=C(C)CC[C@H]3C3(C=O)CC1C=C(C(C)C)[C@@]23C(=O)O
MIC (Candida albicans [1]): 0.125 µg/mL (≈ 0.302 µM)
MIC (Candida albicans [2]): 0.5 µg/mL (≈ 1.21 µM)
MIC (Nakaseomyces glabratus): 8 µg/mL (≈ 19.3 µM)

CCCCCCOCC12C[C@@H]3[C@H](C)C(=O)C[C@H]3C3(C=O)CC1C=C(C(C)C)[C@@]23C(=O)O
MIC (Candida albicans [1]): 4 µg/mL (≈ 9.29 µM)
MIC (Candida albicans [2]): 8 µg/mL (≈ 18.6 µM)
MIC (Nakaseomyces glabratus): 32 µg/mL (≈ 74.3 µM)

CCCCCCOCC12C[C@@H]3[C@H](C)[C@H](F)C[C@H]3C3(C=O)CC1C=C(C(C)C)[C@@]23C(=O)O
MIC (Candida albicans [1]): 0.25 µg/mL (≈ 0.575 µM)
MIC (Candida albicans [2]): 0.5 µg/mL (≈ 1.15 µM)
MIC (Nakaseomyces glabratus): 1 µg/mL (≈ 2.3 µM)

CCCCCCOCC12C[C@H]3[C@@H](CC[C@]3(C)O)C3(C=O)CC1C=C(C(C)C)[C@@]23C(=O)O
MIC (Candida albicans [1]): 4 µg/mL (≈ 9.25 µM)
MIC (Candida albicans [2]): 8 µg/mL (≈ 18.5 µM)
MIC (Nakaseomyces glabratus): 32 µg/mL (≈ 74 µM)

COC1C(O)[C@H](O)[C@H](OC[C@@]23C[C@@H]4[C@H](C)CC[C@H]4[C@@]4(C=O)CC2C=C(C(C)C)[C@@]34C(=O)O)O[C@@H]1C (single isomer, unassigned) [SORDARIN]
MIC (Candida albicans [1]): 16 µg/mL (≈ 32.5 µM)
MIC (Nakaseomyces glabratus): > 128 µg/mL
